Results from patent publication EP0596449A2, “Serotonin receptor antagonists for treating myocardial ischemia” (E.R. SQUIBB & SONS, INC., priority 1992, dated 1994).
Marks after values point to notes of the source that are not given here.

Tests used:
[1] = system: globally ischemic rat hearts; assay: Global ischemia (25 min) and reperfusion (30 min) in isolated perfused rat hearts, 5HT2 antagonists
Protocol: To determine the effect of serotonin receptor agonists and antagonists, male Sprague-Dawley rats (450-550 g) were prepared as described below. The rats were anesthetized using 100 mg/kg sodium pentobarbital (i.p.). They were intubated and then treated with i.v. heparin (1000 U/kg). While being mechanically ventilated, their hearts were perfused in situ via retrograde cannulation of the aorta. The hearts were then excised and […] moved to a Langendorff apparatus where they were perfused with Krebs-henseleit bicarbonate buffer solution ((mM): 112 NaCI, 25 NaHC03, 5 KCI, 1.2 MgS04, 1 KH2P04, 1.25 CaC12, 2 pyruvate and 11.5 dextrose bubbled with 95% 02 - 5% C02) at a constant perfusion pressure (85 mm Hg). A water-filled latex balloon attached to a metal cannula was then inserted into the left ventricle and connected to a Statham pressure transducer for measurement of left ventricular pressure. The hearts were allowed to equilibrate for 15 min, at which time end diastolic pressure (EDP) was adjusted to 5 mm Hg and this balloon volume was maintained for the duration of the experiment. Pre-ischemia or pre-drug function, heart rate and coronary flow (extracorporeal electromagnetic flow probe) were then measured. Left ventricular developed pressure (LVDP) was calculated from the difference between left ventricular peak systolic pressure and EDP. Cardiac temperature was maintained throughout the experiment by submerging the hearts in 37 ° C buffer which was allowed to accumulate in a stoppered, heated chamber.
The model of global ischemia in isolated rat hearts was designed such that any protective effects observed are generally due to a direct cardioprotective effect and not to effects on cornonary or peripheral vascular tone. Also, because the hearts are perfused with an oxygenated buffer solution, platelets or the normal components of an inflammatory response are probably not important mediators of the ischemic/reperfusion injury observed in this model. […] Agents which exert their protective effects either through their effects on the peripheral or coronary vasculature such as nitrates or agents which act on blood or act on some component of the inflammatory response such as thromboxane A2 receptor antagonists are generally ineffective in this model.
The hearts were divided into the following groups: 1. Vehicle (0.1% DMSO) treatment beginning 10 minutes before the onset of ischemia (n = 8). 2. 0.3-10 µM ketanserin treatment beginning 10 minutes before the onset of ischemia (n = 4-5 per group). 3. 10 µM ketanserin given only during reperfusion (n = 4). 4. 0.1-10 µM cinanserin treatment beginning 10 minutes before global ischemia (n = 4-10). 5. 1-10 µM LY 53857 treatment beginning 10 minutes before the onset of ischemia (n = 4 per group). After 10 minutes of vehicle or drug pretreatment, the hearts were subjected to 25 minutes of total global ischemia which was initiated by shutting off the perfusate flow. Reperfusion was begun (without drug except in the case of group 3 above) and allowed to continue for 30 minutes. At this time, final measurements of EDP, LVDP and coronary flow were obtained. Cumulative LDH relase was measured in the reperfusate and was used as the index of cellular and membrane viability. In all hearts, the time to contracture during ischemia was measured and used as an index of cardioprotection during ischemia. Time to contracture is defined as the time (minutes) necessary for the first 5 mm Hg increase in EDP to occur during global ischemia. The data were expressed as the percent change in time to contracture from vehicle.

[2] = system: globally ischemic, isolated rat hearts; assay: Effect of 5HT, alone or with 5HT2 antagonist, on time to contracture and pre-ischemic function in isolated rat hearts; conditions: for Coronary Flow / HR / LVDP: 30 μM 5HT + 3 μM Ketanserin, pre-ischemic; for effect on the pro-ischemic effect of 5HT (time to contracture): 30 µM 5HT plus antagonist, both given 10 minutes before ischemia, Figure 3
Protocol: To determine the effect of serotonin receptor agonists and antagonists, male Sprague-Dawley rats (450-550 g) were prepared as described below. The rats were anesthetized using 100 mg/kg sodium pentobarbital (i.p.). They were intubated and then treated with i.v. heparin (1000 U/kg). While being mechanically ventilated, their hearts were perfused in situ via retrograde cannulation of the aorta. […] A water-filled latex balloon attached to a metal cannula was then inserted into the left ventricle and connected to a Statham pressure transducer for measurement of left ventricular pressure. […] Pre-ischemia or pre-drug function, heart rate and coronary flow (extracorporeal electromagnetic flow probe) were then measured. Left ventricular developed pressure (LVDP) was calculated from the difference between left ventricular peak systolic pressure and EDP. Cardiac temperature was maintained throughout the experiment by submerging the hearts in 37 ° C buffer which was allowed to accumulate in a stoppered, heated chamber. In another series of hearts, the effect of 5HT on the severity of ischemia was determined. […] Vehicle (0.1% DMSO) given 10 minutes before ischemia (n = 5). The hearts were subjected to global ischemia as described above and time to contracture determined. Reperfusion function and LDH release were not determined in this group.

[3] = 0.3 µM, 30 Min Post-Reperfusion
[4] = 0.3 µM, Pre-Ischemia, Post-Drug
[5] = 3 µM (Reper), given only during reperfusion, 30 Min Post-Reperfusion
[6] = 3 µM (Reper), given only during reperfusion, Pre-Ischemia, Post-Drug
[7] = 3 µM (Reper), given only during reperfusion, Pre-Ischemia, Pre-Drug

For O=C(c1ccc(F)cc1)C1CCN(CCn2c(=O)[nH]c3ccccc3c2=O)CC1 [Ketanserin, ketanserin], the “Coronary Flow” value [1, 3] was 13±2^a mL/min/g, the HR [1, 3] was 266±18^a beats/min and the LVDP [1, 3] was 20±5^a mmHg. The “Coronary Flow” value [1, 4] was 16 ± 2 mL/min/g, the HR [1, 4] was 275±6 beats/min and the LVDP [1, 4] was 141±10 mmHg. For the same compound, the “Coronary Flow” value ([1]; 0.3 µM, Pre-Ischemia, Pre-Drug) was 20 ± 2 mL/min/g, the HR ([1]; 0.3 µM, Pre-Ischemia, Pre-Drug) was 291±2 beats/min and the LVDP ([1]; 0.3 µM, Pre-Ischemia, Pre-Drug) was 146±5 mmHg. The “Coronary Flow” value ([1]; 1 µM, 30 Min Post-Reperfusion) was 10±1^a mL/min/g, the HR ([1]; 1 µM, 30 Min Post-Reperfusion) was 243±35^a beats/min and the LVDP ([1]; 1 µM, 30 Min Post-Reperfusion) was 29±5^a mmHg. For the same compound, the “Coronary Flow” value ([1]; 1 µM, Pre-Ischemia, Post-Drug) was 15 ± 1 mL/min/g, the HR ([1]; 1 µM, Pre-Ischemia, Post-Drug) was 272±11 beats/min and the LVDP ([1]; 1 µM, Pre-Ischemia, Post-Drug) was 128±4 mmHg. The “Coronary Flow” value ([1]; 1 µM, Pre-Ischemia, Pre-Drug) was 19 ± 1 mL/min/g, the HR ([1]; 1 µM, Pre-Ischemia, Pre-Drug) was 311±16 beats/min and the LVDP ([1]; 1 µM, Pre-Ischemia, Pre-Drug) was 130±6 mmHg. The “Coronary Flow” value [1, 5] was 14±1^a mL/min/g, the HR [1, 5] was 196±14^a,b beats/min and the LVDP [1, 5] was 33±6^a mmHg. The “Coronary Flow” value [1, 6] was 17 ± 2 mL/min/g, the HR [1, 6] was 285±11 beats/min and the LVDP [1, 6] was 130±5 mmHg. For the same compound, the “Coronary Flow” value [1, 7] was 19 ± 1 mL/min/g, the HR [1, 7] was 292±15 beats/min and the LVDP [1, 7] was 134±4 mmHg. For the same compound, the “Coronary Flow” value ([1]; 3 µM, 30 Min Post-Reperfusion) was 13±1^a mL/min/g, the HR ([1]; 3 µM, 30 Min Post-Reperfusion) was 246±22^a beats/min and the LVDP ([1]; 3 µM, 30 Min Post-Reperfusion) was 53±7^a,b mmHg. For the same compound, the “Coronary Flow” value ([1]; 3 µM, Pre-Ischemia, Post-Drug) was 15 ± 1 mL/min/g, the HR ([1]; 3 µM, Pre-Ischemia, Post-Drug) was 244±16^a beats/min and the LVDP ([1]; 3 µM, Pre-Ischemia, Post-Drug) was 127±9 mmHg. The “Coronary Flow” value ([1]; 3 µM, Pre-Ischemia, Pre-Drug) was 19 ± 1 mL/min/g, the HR ([1]; 3 µM, Pre-Ischemia, Pre-Drug) was 310±13 beats/min and the LVDP ([1]; 3 µM, Pre-Ischemia, Pre-Drug) was 128±8 mmHg. The “Coronary Flow” value ([1]; 10 µM, 30 Min Post-Reperfusion) was 13±2^a mL/min/g, the HR ([1]; 10 µM, 30 Min Post-Reperfusion) was 220±22^a beats/min and the LVDP ([1]; 10 µM, 30 Min Post-Reperfusion) was 66±4^a,b mmHg. For the same compound, the “Coronary Flow” value ([1]; 10 µM, Pre-Ischemia, Post-Drug) was 14 ± 2 mL/min/g, the HR ([1]; 10 µM, Pre-Ischemia, Post-Drug) was 196±19^a,b beats/min and the LVDP ([1]; 10 µM, Pre-Ischemia, Post-Drug) was 128±5 mmHg. For the same compound, the “Coronary Flow” value ([1]; 10 µM, Pre-Ischemia, Pre-Drug) was 19 ± 1 mL/min/g, the HR ([1]; 10 µM, Pre-Ischemia, Pre-Drug) was 290±6 beats/min and the LVDP ([1]; 10 µM, Pre-Ischemia, Pre-Drug) was 135±5 mmHg. The EC25 ([1]; Rattus norvegicus, drug given 10 minutes before global ischemia, read-out: EC25 (concentration which increased the time to contracture 25% above vehicle group values)) was 5.5 µM, the “cumulative LDH release during reperfusion” value ([1]; given only during reperfusion (Reper)) was “did not cause a reduction in LDH release” and the “protective effect for any variable measured” value ([1]; given only during reperfusion at 3 µM) was “no protective effect”. The “reperfusion LDH release” value ([1]; only at the 10 µM concentration, Figure 2B) was “significantly reduced LDH relase”, the “Coronary Flow” value ([2]; Post-Drug) was 18 ± 1 mL/min/g and the HR ([2]; Post-Drug) was 335±17^a beats/min. The LVDP ([2]; Post-Drug) was 130±2 mmHg, the “Coronary Flow” value ([2]; Pre-Drug) was 18 ± 2 mL/min/g and the HR ([2]; Pre-Drug) was 270±16 beats/min. The LVDP ([2]; Pre-Drug) was 141±4 mmHg, the “effect on the pro-ischemic effect of 5HT (time to contracture)” value [2] was “abolished the pro-ischemic effect of serotonin” and the “effect on the pro-ischemic effect of 5HT (time to contracture)” value ([2]; listed as ketanserin) was “completely abolished this pro-ischemic effect”.
